ChEMBL document CHEMBL2073937, “In vitro substrate identification studies for p-glycoprotein-mediated transport: species difference and predictability of in vivo results” (J Pharmacol Exp Ther, 2001)

What was measured:
[1] = target: T1, ATP-dependent translocase ABCB1 (Homo sapiens, UniProt P08183); test: TP_TRANSPORTER: transepithelial transport (basal to apical) in MDR1-expressing LLC-PK1 cells; format: functional, cell-based; conditions: pig
[2] = target: T2, ATP-dependent translocase ABCB1 (Mus musculus, UniProt P21447); test: TP_TRANSPORTER: transepithelial transport (basal to apical) in mdr1a-expressing LLC-PK1 cell; format: functional, cell-based; conditions: pig
[3] = target: T1, ATP-dependent translocase ABCB1; test: TP_TRANSPORTER: cell accumulation in KB-3-1 and KB-V1 cells; format: functional, cell-based; conditions: kb-3-1;kb-v1
[4] = target: T2, ATP-dependent translocase ABCB1; test: TP_TRANSPORTER: increase in plasma concentration in mdr1a(-/-) mouse; format: functional, organism-based; conditions: in vivo
[5] = target: T2, ATP-dependent translocase ABCB1; test: TP_TRANSPORTER: increase in brain concentration in mdr1a(-/-) mouse; format: functional, organism-based; conditions: in vivo
[6] = target: T2, ATP-dependent translocase ABCB1; test: TP_TRANSPORTER: no change in brain concentration in mdr1a(-/-) mouse; format: functional, organism-based; conditions: in vivo
[7] = target: T2, ATP-dependent translocase ABCB1; test: TP_TRANSPORTER: no change in plasma concentration in mdr1a(-/-) mouse; format: functional, organism-based; conditions: in vivo

T1 sequence (P08183 whole entry): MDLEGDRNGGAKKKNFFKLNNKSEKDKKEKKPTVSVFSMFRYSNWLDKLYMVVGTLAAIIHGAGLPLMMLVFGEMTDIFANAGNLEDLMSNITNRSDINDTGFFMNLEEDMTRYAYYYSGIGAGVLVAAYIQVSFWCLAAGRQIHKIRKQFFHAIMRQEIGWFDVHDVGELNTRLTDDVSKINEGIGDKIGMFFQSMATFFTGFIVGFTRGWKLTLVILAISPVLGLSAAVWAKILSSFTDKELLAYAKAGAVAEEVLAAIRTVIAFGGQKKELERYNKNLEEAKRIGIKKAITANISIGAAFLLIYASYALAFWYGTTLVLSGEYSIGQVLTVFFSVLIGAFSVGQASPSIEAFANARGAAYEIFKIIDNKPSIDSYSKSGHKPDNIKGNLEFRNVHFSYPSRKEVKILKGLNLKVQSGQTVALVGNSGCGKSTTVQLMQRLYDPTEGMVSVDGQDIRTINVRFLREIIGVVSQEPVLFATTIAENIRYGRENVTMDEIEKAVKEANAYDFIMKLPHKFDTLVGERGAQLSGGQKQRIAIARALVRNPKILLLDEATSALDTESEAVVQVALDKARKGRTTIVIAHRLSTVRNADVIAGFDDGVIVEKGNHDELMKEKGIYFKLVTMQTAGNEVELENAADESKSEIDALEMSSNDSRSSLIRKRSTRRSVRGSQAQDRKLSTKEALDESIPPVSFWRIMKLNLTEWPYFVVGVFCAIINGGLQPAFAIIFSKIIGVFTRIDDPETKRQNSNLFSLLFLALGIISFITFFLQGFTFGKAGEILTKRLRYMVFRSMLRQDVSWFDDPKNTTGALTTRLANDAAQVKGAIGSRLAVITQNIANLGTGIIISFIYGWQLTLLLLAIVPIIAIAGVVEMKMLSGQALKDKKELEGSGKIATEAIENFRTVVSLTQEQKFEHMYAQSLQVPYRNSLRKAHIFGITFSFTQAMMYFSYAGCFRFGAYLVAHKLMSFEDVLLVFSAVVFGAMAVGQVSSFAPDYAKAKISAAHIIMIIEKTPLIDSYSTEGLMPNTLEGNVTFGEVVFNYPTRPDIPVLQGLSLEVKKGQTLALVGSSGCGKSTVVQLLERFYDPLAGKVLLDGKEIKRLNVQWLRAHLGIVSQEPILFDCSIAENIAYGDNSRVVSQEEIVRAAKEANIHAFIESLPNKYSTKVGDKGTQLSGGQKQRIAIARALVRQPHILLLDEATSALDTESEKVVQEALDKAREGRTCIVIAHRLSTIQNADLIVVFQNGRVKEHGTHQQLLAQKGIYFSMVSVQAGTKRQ
T2 sequence (P21447 whole entry): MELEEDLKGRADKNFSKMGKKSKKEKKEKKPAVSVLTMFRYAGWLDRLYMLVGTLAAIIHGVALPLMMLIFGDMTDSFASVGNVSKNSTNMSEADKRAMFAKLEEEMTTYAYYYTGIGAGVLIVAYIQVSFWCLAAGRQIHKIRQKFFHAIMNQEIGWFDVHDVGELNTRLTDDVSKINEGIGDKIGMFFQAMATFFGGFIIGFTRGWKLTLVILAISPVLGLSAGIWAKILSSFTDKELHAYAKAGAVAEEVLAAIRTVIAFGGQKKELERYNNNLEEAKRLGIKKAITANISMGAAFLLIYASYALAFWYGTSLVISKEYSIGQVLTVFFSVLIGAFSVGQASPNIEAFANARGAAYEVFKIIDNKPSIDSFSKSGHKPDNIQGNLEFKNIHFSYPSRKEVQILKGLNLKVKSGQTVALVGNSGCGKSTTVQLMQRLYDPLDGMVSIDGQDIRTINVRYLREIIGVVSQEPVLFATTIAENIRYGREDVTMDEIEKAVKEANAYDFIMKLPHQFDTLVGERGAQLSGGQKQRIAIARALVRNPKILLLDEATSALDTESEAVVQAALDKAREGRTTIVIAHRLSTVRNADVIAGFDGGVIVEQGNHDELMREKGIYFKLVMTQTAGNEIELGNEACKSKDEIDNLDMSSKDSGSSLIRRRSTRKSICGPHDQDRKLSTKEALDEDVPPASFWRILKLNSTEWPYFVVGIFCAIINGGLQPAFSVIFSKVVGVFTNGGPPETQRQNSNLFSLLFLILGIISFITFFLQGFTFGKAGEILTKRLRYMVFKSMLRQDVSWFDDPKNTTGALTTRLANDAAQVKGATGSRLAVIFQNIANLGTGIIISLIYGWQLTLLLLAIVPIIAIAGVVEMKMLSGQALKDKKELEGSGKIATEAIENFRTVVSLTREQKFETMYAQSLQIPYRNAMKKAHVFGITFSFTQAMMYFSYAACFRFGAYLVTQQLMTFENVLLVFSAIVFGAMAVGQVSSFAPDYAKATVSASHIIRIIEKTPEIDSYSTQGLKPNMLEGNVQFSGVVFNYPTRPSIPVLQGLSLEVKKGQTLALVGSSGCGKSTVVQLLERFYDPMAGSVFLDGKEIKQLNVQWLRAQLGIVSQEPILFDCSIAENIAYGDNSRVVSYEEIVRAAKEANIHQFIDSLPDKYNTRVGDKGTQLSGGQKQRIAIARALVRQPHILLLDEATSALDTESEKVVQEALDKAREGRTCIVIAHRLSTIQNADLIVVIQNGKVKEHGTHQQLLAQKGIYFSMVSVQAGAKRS

Structure (SMILES)	Activity [1]	Activity [2]	Activity [3]	Activity [4]	Activity [5]	Activity [6]	Activity [7]
Cc1nc(N)ccc1CNC(=O)Cn1c(C)cnc(NCCc2ccccc2)c1=O.Cl.Cl.O	substrate [+]	substrate [+]	substrate [+]	–	–	–	–
C[C@H](N)c1ccc(N2CCC(c3nc(-c4cccc(C(F)(F)F)c4)c(-c4ccncc4)n3C)CC2)cc1.[O-][Cl+3]([O-])([O-])O	substrate [+]	substrate [+]	substrate [+]	substrate [+]	substrate [+]	–	–
CC(C)(C)NC(=O)[C@@H]1CN(Cc2cc3ccccc3o2)CCN1[C@@H](Cc1ccccc1)[C@@H](O)C[C@@H](Cc1ccccc1)C(=O)NC1c2ccccc2C[C@H]1O (some centres undefined)	–	substrate [+]	substrate [+]	substrate [+]	substrate [+]	–	–
Cc1cccc(NC(=O)NC2N=C(c3ccccc3)c3ccccc3N(C)C2=O)c1 (centres undefined)	substrate [+]	substrate [+]	substrate [+]	substrate [+]	substrate [+]	–	–
C[C@@H](O)[C@H]1C(=O)N2C(C(=O)[O-])=C(S[C@@H]3CN[C@H](C(=O)Nc4cccc(C(=O)O)c4)C3)[C@H](C)[C@H]12.O.[Na+]	is not a substrate [-]	is not a substrate [-]	is not a substrate [-]	–	–	–	–
CC(C)(C)NC(=O)[C@@H]1CN(Cc2cccnc2)CCN1C[C@@H](O)C[C@@H](Cc1ccccc1)C(=O)N[C@H]1c2ccccc2C[C@H]1O.O	–	substrate [+]	substrate [+]	substrate [+]	substrate [+]	–	–
CN1C(=O)C(NC(=O)c2cc3ccccc3[nH]2)N=C(c2ccccc2)c2ccccc21 (racemic)	is not a substrate [-]	is not a substrate [-]	is not a substrate [-]	–	–	–	–
CC[C@H](C)C[C@H](C)CCCCCCCCC(=O)N[C@H]1C[C@@H](O)[C@@H](NCCN)NC(=O)[C@@H]2[C@@H](O)CCN2C(=O)[C@H]([C@H](O)CCN)NC(=O)[C@H]([C@H](O)[C@@H](O)c2ccc(O)cc2)NC(=O)[C@@H]2C[C@@H](O)CN2C(=O)[C@H]([C@@H](C)O)NC1=O [CASPOFUNGIN]	is not a substrate [-]	is not a substrate [-]	is not a substrate [-]	–	–	–	–
CN1C(=O)CN=C(c2ccccc2)c2cc(Cl)ccc21 [DIAZEPAM]	is not a substrate [-]	is not a substrate [-]	is not a substrate [-]	–	–	is not a substrate [-]	is not a substrate [-]
N#Cc1ccc(Cn2cncc2CN2CCN(c3cccc(Cl)c3)C(=O)C2)cc1 [L-778123 FREE BASE]	substrate [+]	substrate [+]	substrate [+]	–	–	–	–
CC(=O)[C@H]1CC[C@H]2[C@@H]3CCC4=CC(=O)CC[C@]4(C)[C@H]3CC[C@]12C [PROGESTERONE]	substrate [+]	is not a substrate [-]	is not a substrate [-]	–	–	–	–
CC[C@]1(O)C[C@@H]2CN(CCc3c([nH]c4ccccc34)[C@@](C(=O)OC)(c3cc4c(cc3OC)N(C)[C@H]3[C@@](O)(C(=O)OC)[C@H](OC(C)=O)[C@]5(CC)C=CCN6CC[C@]43[C@@H]65)C2)C1 [VINBLASTINE]	–	–	substrate [+]	substrate [+]	substrate [+]	–	–
